{"source": "patent US12414976B2", "about": "“Pharmaceutical composition for preventing hair loss or promoting hair growth, comprising ginsenoside RG4 or mixture (Rgx 365) of ginsenosides Rg2, Rg4, Rg6, and Rh1 as active ingredient” (AREZ CO., LTD., priority 2019, dated 2025)", "key": {"TCF/LEF": {"system": "TCF/LEF", "experiment": "TCF/LEF luciferase reporter assay (TOPFlash/FOPFlash), Wnt/β-catenin signaling", "type": "cell-based", "conditions": "HEK293 cells, 20 μg/ml, 24 hours, vs non-treated group (control)", "experimental": "HEK293 cells were cultured in DMEM (Dulbecco's Modified Eagle's Medium, Thermo Fisher Scientific, Inc.) supplemented with 10% fetal bovine serum, penicillin (50 U/ml), and streptomycin (50 U/ml) under the condition of 37° C. and 5% CO2.\nWhether the Wnt/β-catenin signaling is activated or not was determined using a TCF/LEF luciferase reporter plasmid (TOPFlash, Merck-Millipore, Darmstadt, Germany) designed to specifically react with the transcription factor TCF/LEF activated by β-catenin, and a reporter plasmid having a mutation caused in the promoter thereof (FOPFlash, Merck-Millipore, Darmstadt, Germany).\nFirst, the TCF/LEF luciferase reporter plasmid (TOPFlash (TCF/LEF-wt) or FOPFlash (TCF/LEF-mut)) and a β-galactosidase plasmid were transfected into the HEK293 cells cultured in Experimental Example 1 with the aid of Lipofectamine 3000 (Invitrogen, Thermo Fisher Scientific, Inc.). After being incubated with 20 μg/ml of Example 1 for 24 hours, the transfected cells were lysed with a passive lysis buffer (Promega, Madison, WI, USA). The cell lysate thus formed was added with D-luciferin and measured for luciferase activity by Glomax 96 Microplate Luminometer (Turner Biosystem, Sunnyvale, CA, USA). β-Galactosidase activity was measured with the aid of Luminescent β-galactosidase Detection Kit II (Clontech Laboratories Inc., USA). […]"}, "FGF7": {"system": "FGF7", "experiment": "Real-time PCR mRNA expression, dermal papilla signature gene", "type": "cell-based, human", "conditions": "3D spheroid culture, vs non-treated control", "experimental": "(§1) Next, for 3D spheroid culture, human hair follicle dermal papilla cells were cultured in a plate (round-bottom ultra-low attachment microplate, Corning, NY, USA) containing the stem cell medium supplemented with 5% fetal bovine serum at 37° C. under a 5% CO2 atmosphere.\n(§2) Next, in order to confirm the luciferase activity results, mRNA analysis was performed on β-catenin, WNT5A, and LEF1, which are involved in the Wnt/β-catenin signaling. First, a 3D spheroid culture of human hair follicle dermal papilla cells was treated with Example 1 (20 μg/ml) for 48 hours, followed by RNA extraction with a TRIzol solution (Invitrogen, Thermo Fisher Scientific). From 2 μg of the RNA extract, cDNA was synthesized in the presence of M-MLV reverse transcriptase. The synthesized cDNA was mixed with HOT FIREPol EvaGreen qPCR Mix Plus solution (Solis BioDyne, Tartu, Estonia) and each of primer sets for the Wnt/β-catenin target genes β-catenin, WNT5A, and LEF1 and subjected to Step OnePlus Real-Time PCR (Applied Biosystems; Thermo Fisher Scientific). Relative to the expression of β-actin housekeeping gene, an expression level of each gene was derived. Analysis results of mRNA expressions are depicted in FIGS. 5B to 5D.\n(§3) After being applied to the 3D spheroid culture of human hair follicle dermal papilla cells in Experimental Example 1, the Examples of the present disclosure were examined for the effect of preventing hair loss and promoting hair growth by monitoring mRNA expression levels of ALPL, VCAN, BMP2, and FGF7.\n(§4) The mRNA expression analysis of ALPL, VCAN, BMP2, and FGF7 was carried out in the same manner as for β-catenin, WNT5A, and LEF1 in Experimental Example 3-2, with the exception of using primer sets for ALPL, VCAN, FGF7, and BMP2 instead of those for β-catenin, WNT5A, and LEF1. The mRNA expression analysis data are depicted in FIGS. 6 and 7."}, "BMP2": {"system": "BMP2", "experiment": "Real-time PCR mRNA expression, dermal papilla signature gene", "type": "cell-based, human", "conditions": "3D spheroid culture, vs non-treated control", "experimental": "as §1, §2, §3, §4"}, "ALPL": {"system": "ALPL", "experiment": "Real-time PCR mRNA expression, dermal papilla signature gene", "type": "cell-based, human", "conditions": "3D spheroid culture, vs non-treated control", "experimental": "as §1, §2, §3, §4"}, "VCAN": {"system": "VCAN", "experiment": "Real-time PCR mRNA expression, dermal papilla signature gene", "type": "cell-based, human", "conditions": "3D spheroid culture, vs non-treated control", "experimental": "as §1, §2, §3, §4"}, "[1]": {"system": "human hair follicle dermal papilla cells", "experiment": "Formation and size of 3D spheroids (phase-contrast microscope)", "type": "cell-based", "conditions": "3D culture, 48 hours", "experimental": "as §1\nReferring to the document [Higgins, C. A. et al., Exp Dermatol., 19(6), 546-548, 2010; Higgins, C. A. et al., Proc Natl Acad Sci USA., 110(49), 19679-19688, 2013; Kang, B. M. et al., J Invest Dermatol., 132(1), 237-239, 2012], a 3D spheroid culture of human hair follicle dermal papilla cells is reported to induce better formation and growth of hair follicles, compared to a 2D culture of human hair follicle dermal papilla cells. In addition, the document [Whiting, D. A., J Am Acad Dermatol., 45(3 Suppl), S81-S86, 2001; de Lacharriere, O. et al., Arch Dermatol., 137(5), 641-646, 2001; Jahoda, C. A., Exp Dermatol., 7(5), 235-248, 1998] reports that a decrease in the size of dermal papilla may cause follicle miniaturization in patients with hair loss. The Examples of the present disclosure were examined for effects of preventing hair loss and promoting hair growth by monitoring the formation and size of 3D spheroids after application to the 3D spheroid culture of Experimental Example 1.\nFirst, the formation and size change of 3D spheroids of human hair follicle dermal papilla cells were observed. In this regard, the 3D spheroid culture of cells in Experimental Example 1 was seeded at a density of 5×10^4 cells/well into 96-well plates (96-well round-bottom ultra-low attachment microplates) and incubated for 48 hours with predetermined concentrations of Examples 1 and 2 and Comparative Example 1 (ginsenoside Rg2). Thereafter, the human dermal papilla cells were observed under a phase-contrast microscope to see whether the cells formed 3D spheroids and to measure sizes of the spheroids."}, "WNT5A": {"system": "WNT5A", "experiment": "Real-time PCR mRNA expression, Wnt/β-catenin signaling", "type": "cell-based, human", "conditions": "3D spheroid culture, 20 μg/ml, 48 hours, relative to β-actin, vs non-treated group (control)", "experimental": "as §1, §2"}, "LEF1": {"system": "LEF1", "experiment": "Real-time PCR mRNA expression, Wnt/β-catenin signaling", "type": "cell-based, human", "conditions": "3D spheroid culture, 20 μg/ml, 48 hours, relative to β-actin, vs non-treated group (control)", "experimental": "as §1, §2"}, "β-catenin": {"system": "β-catenin", "experiment": "Real-time PCR mRNA expression, Wnt/β-catenin signaling", "type": "cell-based, human", "conditions": "3D spheroid culture, 20 μg/ml, 48 hours, relative to β-actin, vs non-treated group (control)", "experimental": "as §1, §2"}, "[2]": {"system": "human hair follicle dermal papilla cells", "experiment": "WST-1 cell viability assay", "type": "cell-based", "conditions": "48 hours, various concentrations, vs non-treated group", "experimental": "With reference to the documents [Topouzi, H. et al., Exp Dermatol., 26(6), 491-496, 2017; Higgins, C. A. et al., Proc Natl Acad Sci USA., 110(49), 19679-19688, 2013; Higgins, C. A. et al., Exp Dermatol., 19(6), 546-548, 2010], human hair follicle dermal papilla (HDP) cells were incubated in a general 2D monolayer culture manner and in a 3D spheroid culture manner as in the actual human follicle structure.\nFirst, for 2D monolayer culture, human hair follicle dermal papilla cells were cultured in a mesenchymal stem cell medium (MSCM) (Innoprot, Bizakaia, Spain) supplemented with 5% fetal bovine serum (FBS, Thermo Fisher Scientific, Inc., Waltham, MA, USA) in an incubator maintaining the condition of 37° C. and 5% CO2. […]\nFirst, the human hair follicle dermal papilla cells cultured in a 2D or 3D manner in Experimental Example 1 were seeded at a density of 1×10^4 cells/well into 96-well plates (96-well round-bottom ultra-low attachment microplates) and incubated at 37° C. for 24 hours in a 5% CO2 atmosphere. […] Then, 10 μl of the WST-1 solution was added to the culture and incubated for 30 min before reading absorbance at 450 nm on an iMark microplate reader (Bio-Rad Laboratories, Hercules, CA, USA). […]"}}, "data": [{"smiles": "CC(C)=CC/C=C(/C)[C@H]1CC[C@]2(C)[C@@H]1[C@H](O)C[C@@H]1[C@@]3(C)CC[C@H](O)C(C)(C)[C@@H]3[C@@H](O[C@@H]3O[C@H](CO)[C@@H](O)[C@H](O)[C@H]3O[C@@H]3O[C@@H](C)[C@H](O)[C@@H](O)[C@H]3O)C[C@]12C", "note": "[Example 1, ginsenoside Rg4]", "values": [{"measurement": "activation of TCF/LEF (luciferase activity)", "setting": "TCF/LEF", "result": "two folds or more"}, {"measurement": "mRNA expression level of FGF7", "setting": "FGF7", "result": "increased"}, {"measurement": "mRNA expression level of BMP2", "setting": "BMP2", "result": "increased"}, {"measurement": "mRNA expression level of ALPL", "setting": "ALPL", "result": "increased"}, {"measurement": "mRNA expression level of VCAN", "setting": "VCAN", "result": "increased"}, {"measurement": "number of 3D spheroids, increase compared to ginsenoside Rg2 of Comparative Example 1", "setting": "[1]; FIG. 3C", "result": "two to three folds"}, {"measurement": "size of 3D spheroids, increase compared to ginsenoside Rg2 of Comparative Example 1", "setting": "[1]; FIG. 3C", "result": "two to three folds"}, {"measurement": "number of 3D spheroids", "setting": "[1]; vs non-treated group", "result": "increase the number and size of 3D spheroids in a concentration-dependent manner"}, {"measurement": "size of 3D spheroids", "setting": "[1]; vs non-treated group", "result": "increase the number and size of 3D spheroids in a concentration-dependent manner"}, {"measurement": "mRNA expression level of WNT5A", "setting": "WNT5A", "result": "two folds or more"}, {"measurement": "mRNA expression level of LEF1", "setting": "LEF1", "result": "two folds or more"}, {"measurement": "mRNA expression level of β-catenin", "setting": "β-catenin", "result": "two folds or more"}, {"measurement": "cell viability", "setting": "[2]; 2D (monolayer) cultured cells", "result": "the same cell viability"}, {"measurement": "cell viability", "setting": "[2]; 3D (spheroid) cultured cells", "result": "the same cell viability"}]}]}
